According to patent US20250388592A1 (REMYND N.V., priority 2022, published 2025):

Columns and labels:
M17_3TAU(P301L) cells = experiment: TAU-induced cytotoxicity (LDH) in the neuroblastoma tauopathy model; format: cell-based; conditions: Homo sapiens, 168 h, inhibition of TAU-induced toxicity, 7 days retinoic acid differentiation, LDH readout
Summary of the method: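 Stably transfected BE-M17 cells expressing human TAU-P301L, seeded in serum-free detection medium, then differentiated with 2.5 μM RA (added in equal volume) for 7 days at 37° C/5% CO2 to induce TAU aggregation. Cytotoxicity = supernatant LDH increase over total LDH; EC50 from dose-dependent inhibition curves.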

[1] = system: Tau-P301S transgenic mice; experiment: Hippocampal long-term potentiation (CA3-CA1 fEPSP) in human Tau transgenic mice model of Alzheimer disease; format: in vivo, mouse; conditions: 41-60 minute post-induction interval
Excerpt: The Tau-P301S line of mice was transgenic for the 383 aa isoform of human tau with the P301S mutation (Allen et al., 2002). In these mice, a clinical mutant of the human Tau (P301S) was expressed under control of the murine Thy1 promoter (neuron-specific expression) in C57Bl/6JxCBA/ca background. The homozygous hTauP301S-Tg model used consisted of the progeny from a cross between two homozygous hTauP301S-Tg parental mice in C57Bl/6JxCBA/ca background, bred in SPF breeding conditions.
Six mice (3,5 months of age) per group were treated orally once daily for 7 days with vehicle or 0.4, 2 or 10 mg/kg cpd B061, or twice daily for 7 days with vehicle or 25 mg/kg cpd B112, formulated in labrasol/capryol (70/30% W/V). A wild type vehicle group was included as well. The mice in study were sacrificed after a minimum of 7 days of acclimatization and 7 days of dosing. LTP measurements occurred between 90 and 120 minutes after excision of the brain.
Mice were anaesthetized with isoflurane and then decapitated. Heads were immediately immersed in ice-cold freshly prepared artificial CSF (cerebrospinal fluid) (aCSF) for at least 2 min before brain extraction. Acute slices (400 μm thick) were prepared with a vibratome (VT 1000S; Leica Microsystems, Bannockburn, IL) in ice-cold gassed aCSF. Sections were incubated in aCSF at 34° C. for 20 min and then kept at room temperature for at least 1 h before recording. aCSF was composed of the following (in mM): 119 NaCl, 11 d-glucose, 1.3 MgCl2·6H2O, 1.3 NaH2PO4, 2.5 KCl, 2.5 CaCl2, 26 NaHCO3, gassed with O2/CO2 (95/5%) at least 20 min before use and throughout the experiment.
Recordings were performed in a submerged chamber continuously flowed with aCSF at 2 ml/min. Extracellular field excitatory postsynaptic potentials (fEPSPs) were recorded in the CA1 stratum radiatum using a glass micropipette filled with aCSF. fEPSPs were evoked by the electrical

SMILES | EC50 (M17_3TAU(P301L) cells) | further results
O=C(Cc1ccc(Cl)cc1)N1CC2(CN(Cc3ccc(F)cc3)C2)C1 [Cpd B061, 2-(4-chlorophenyl)-1-(6-(4-fluorobenzyl)-2,6-diazaspiro[3.3]heptan-2-yl)ethanone] | 2.46 nM | Average fEPSP slope (% of baseline) ([1]; 0.4 mpk orally once daily for 7 days): 129.0 % of baseline; Average fEPSP slope (% of baseline) ([1]; 2 mpk orally once daily for 7 days): 152.2 % of baseline; Average fEPSP slope (% of baseline) ([1]; 10 mpk orally once daily for 7 days): 169.3 % of baseline
O=C(CC1CCC(F)(F)CC1)N1CC2(CN(Cc3ncccc3C(F)(F)F)C2)C1 [Cpd B112] | 12.2 nM | Average fEPSP slope (% of baseline) ([1]; 25 mpk orally twice daily for 7 days): 144.4 % of baseline
Cc1nc(CN2CC3(C2)CN(C(=O)CC2CCC(F)(F)CC2)C3)sc1C [Cpd B451] | 106 nM | 
Cc1nc(CN2CC3(C2)CN(C(=O)Nc2ccc(Cl)cc2)C3)cs1 [Cpd B452] | 94.5 nM | 
O=C(NCC1CCC(F)(F)CC1)N1CC2(CN(Cc3ccc(F)cn3)C2)C1 [Cpd B453] | 83.6 nM | 
O=C(NC1CCCCC1)N1CC2(CN(Cc3ccc(F)cc3)C2)C1 [Cpd B454] | 76.6 nM | 
COc1cccc(CN2CC3(C2)CN(C(=O)CC2CCCC2)C3)c1 [Cpd B455] | 74.5 nM | 
Cc1ncc(CN2CC3(C2)CN(C(=O)CC2CCC(F)(F)CC2)C3)s1 [Cpd B456] | 73.9 nM | 
O=C(NC1CCC(F)(F)CC1)N1CC2(CN(Cc3ccc(Cl)cn3)C2)C1 [Cpd B457] | 71.5 nM | 
Cn1cnc(CN2CC3(C2)CN(C(=O)CC2CCC(F)(F)CC2)C3)c1Cl [Cpd B458] | 65.5 nM | 
O=C(NCC1CCC(F)(F)CC1)N1CC2(CN(Cc3c(F)cccc3C(F)(F)F)C2)C1 [Cpd B459] | 64.8 nM | 
O=C(NC1CCC(F)(F)CC1)N1CC2(CN(Cc3ccc(C(F)(F)F)cc3)C2)C1 [Cpd B460] | 63 nM | 
Cc1c(CN2CC3(C2)CN(C(=O)CC2CCC(F)(F)CC2)C3)cnn1C [Cpd B461] | 56.5 nM | 
Cn1ccc(CN2CC3(C2)CN(C(=O)CC2CCC(F)(F)CC2)C3)n1 [Cpd B462] | 53.1 nM | 
COc1cccc(CN2CC3(C2)CN(C(=O)OCc2ccc(Cl)cc2)C3)c1 [Cpd B463] | 41.7 nM | 
O=C(CC1CCC(F)(F)CC1)N1CC2(CN(Cc3ncccc3F)C2)C1 [Cpd B464] | 40.1 nM | 
O=C(Nc1ccc(OC(F)F)cc1)N1CC2(CN(Cc3ccc(F)cc3)C2)C1 [Cpd B465] | 38.1 nM | 
O=C(Nc1cccc(Cl)c1)N1CC2(CN(Cc3ccc(F)cc3)C2)C1 [Cpd B466] | 18.6 nM | 
